Measured values reported in patent US9809562B2, “NAT10 modulators for treating or preventing laminopathies, aging and cancer” (CAMBRIDGE ENTERPRISE LIMITED, priority 2014, dated 2017).
Where a name gives a salt, the structure may show the parent alone.

How the values were obtained:
[1] = tested on: U2OS cells transfected with siCT or siLMNA; test: Cell density after cycloheximide (DAPI staining); assay type: cell-based, human; details: 24 h treatment
Experimental: FIG. 16: Compound 2 decreases protein translation of Lamin A/C depleted cells. A) U2OS cells transfected with siRNA control (siCT) or siRNA Lamin A/C (siLMNA) were plated at the same density, treated with cycloheximide (CHX) for 24 h to inhibit protein synthesis and stained with DAPI. […] B) Protein synthesis was measured by quantifying the incorporation of HPG, a clickable analogue of methionine.

[2] = tested on: LMNA knock out (KO) U2OS cell line; test: Cell growth of LMNA KO versus LMNA WT U2OS cells (IncuCyte ZOOM); assay type: cell-based, human; details: U2OS LMNA KO
Source text: LMNA knock out (KO) U2OS cell line was engineered using CripR/Cas9 technology. The sensitivity of LMNA KO cells to Compound 2 was compared to cells expressing wild type LMNA (LMNA WT). Cell growth was monitored automatically over time using an IncuCyte ZOOM®. The results are shown in FIG. 21 which has been split into two graphs for easier reading of the curves.

[3] = tested on: farnesyltransferase activity (pre-Lamin A cleavage and maturation); test: Lamin A processing by western blotting; assay type: cell-based, human
Experimental: (§1) The following KAT and KDAC inhibitors were used in the nuclear shape rescue screen, incubating cells with the molecules for 16 hours: trichostatin A (1 μM), sodium butyrate (5 mM), tubacin (10 μM), SAHA (5 μM), curcumin (10 μM), garcinol (50 μM), anacardic acid (1 μM), MB-3 (5 μM), 4-(4-chlorophenyl)-2-(2-cyclopentylidenehydrazinyl)thiazole (Compound 2) (50 μM), 4-(4-chlorophenyl)-2-(2-cyclopentylidene-1-(prop-2-yn-1-yl)hydrazinyl)thiazole (Compound 3) (50 μM) and cyclopentylidene-[4-(4-cyanophenyl)thiazol-2-yl)hydrazine (Compound 1) (Remodelin) (10 to 50 μM). For HGPS cellular fitness assays, Remodelin was incubated at 1 μM for 1 to 10 days, renewing the medium every 3 days. For long-term senescence assay, cells were kept and passaged in medium containing 1 μM Remodelin or DMSO only for 12 population doublings. Senescence was assessed after 8 days of Remodelin treatment when cells were at Population Doubling 12, and then after several weeks of Remodelin treatment, when cells reached Population Doubling 24 using the Senescence β-Galactosidase Staining Kit #9860 from Cell Signaling. […]
Total cell extracts were prepared by scraping cells in SDS lysis buffer (4% SDS, 20% glycerol, and 120 mM Tris-HCl, pH 6.8), boiling for 5 minutes at 95° C., followed by 10 strokes through a 25-gauge needle. […] Detection and quantification was performed with an imager (Odyssey; LI-COR Biosciences).

[4] = tested on: HGPS primary fibroblasts (AG11498 and AG06267); test: Misshapen nuclei in HGPS cells; assay type: cell-based, human; details: HGPS patient fibroblasts
Experimental: (§2) U2OS and SaOS-2 osteosarcoma cells, HeLa cervical cancer cells, A431 melanoma cells, NCI-SNU5 gastric cancer cells, MRC-5 lung fibroblast cells and Werner syndrome patient-derived SV40 fibroblast cells were grown in Dulbecco's modified Eagle medium (DMEM, Sigma-Aldrich) supplemented with 10% fetal bovine serum (BioSera), 2 mM L-glutamine, 100 U per ml penicillin, 100 μg ml^−1 streptomycin. Normal skin primary fibroblasts GM03440 and Hutchinson Gilford Progeria Syndrome (HGPS) skin primary fibroblasts AG11498 and AG06297 were purchased from Coriell Cell Repositories and used between passage number 9-12 and 20-23 respectively. Cells were grown in DMEM supplemented as above. RPE-1 retinal pigment epithelial cells were grown in DMEM and Ham F12 mix medium supplemented as above and buffered with sodium bicarbonate. HMV-II melanoma cell line, 22RV1 prostate carcinoma cells, NCI-H82 and NCI-H69 lung carcinoma cells, and NCI-N87 gastric cancer cell lines were grown in RPMI-1640 medium (Sigma-Aldrich) supplemented as above. Stably transfected U2OS cells were maintained in standard medium containing 1 mg ml^−1 G418 (Invitrogen). The siRNA duplexes were obtained from Life Sciences: Lamin A/C stealth RNAi: […] (SEQ ID NO: 1) and […] (SEQ ID NO: 2), NAT10 stealth RNAi: […] (SEQ ID NO: 3), and as control siRNA, stealth RNAi negative control duplexes were used. Plasmid DNA and siRNA transfections were carried out using Lipofectamine 2000 and Lipofectamine RNAiMax (Life Sciences) respectively, following the manufacturer's instructions. Cells were analysed 48 to 72 hours after transfection.
as §1, with “Signaling. Nocodazole, colchicine and latrunculin A (Sigma-Aldrich) were used at 200 ng/ml, 1 μg/ml and 1 μM respectively.” for “Signaling.”

[5] = tested on: Lamin A/C depleted (siLMNA) U2OS cells; test: Nuclear shape rescue (DAPI staining, nuclear circularity) in Lamin A/C depleted cells; assay type: cell-based, human; details: 16 hours, Compound 2 and 3 50 μM, MB-3 5 μM, FTI 5 μM, nocodazole 200 ng/ml, colchicine 1 μg/ml, latrunculin A 1 μM
Experimental: as §2
(§3) The following KAT and KDAC inhibitors were used in the nuclear shape rescue screen, incubating cells with the molecules for 16 hours: trichostatin A (1 μM), sodium butyrate (5 mM), tubacin (10 μM), SAHA (5 μM), curcumin (10 μM), garcinol (50 μM), anacardic acid (1 μM), MB-3 (5 μM), 4-(4-chlorophenyl)-2-(2-cyclopentylidenehydrazinyl)thiazole (Compound 2) (50 μM), 4-(4-chlorophenyl)-2-(2-cyclopentylidene-1-(prop-2-yn-1-yl)hydrazinyl)thiazole (Compound 3) (50 μM) and cyclopentylidene-[4-(4-cyanophenyl)thiazol-2-yl)hydrazine (Compound 1) (Remodelin) (10 to 50 μM). For HGPS cellular fitness assays, Remodelin was incubated at 1 μM for 1 to 10 days, renewing the medium every 3 days. For long-term senescence assay, cells were kept and passaged in medium containing 1 μM Remodelin or DMSO only for 12 population doublings. Senescence was assessed after 8 days of Remodelin treatment when cells were at Population Doubling 12, and then after several weeks of Remodelin treatment, when cells reached Population Doubling 24 using the Senescence β-Galactosidase Staining Kit #9860 from Cell Signaling. Nocodazole, colchicine and latrunculin A (Sigma-Aldrich) were used at 200 ng/ml, 1 μg/ml and 1 μM respectively. Aphidicolin (Sigma-Aldrich) was used at 5 μg/ml for 16 h. Farnesyltransferase inhibitor FTI-277 was purchased from Tocris Bioscience and used at 5 μM. ATMi (KU55933) and ATRi (ATR-45) were obtained from Tocris Bioscience and from the Ohio State University respectively and used at 10 μM and 500 nM. Pifithrin alpha (Sigma-Aldrich) was used at 10 μM.
CellProfiler software was used to quantify nuclear circularity and nuclear area from DAPI staining pictures, using the “object size shape” measurement. The AreaShape measurement allowed the calculation of the Form Factor index ([…]) corresponding to circularity (a Form Factor of 1 reflecting a perfect circle), as well as the calculation of nuclear Area.
Lamin A/C was depleted by siRNA in U2OS cells (siLMNA) to induce misshapen nuclei. Cells were then treated for 16 h with various analogues of Compound 2 and nuclear shape rescue was analysed by DAPI staining. The results are shown in FIG. 18 and FIG. 19 which display the structures of the tested molecules and their ability to rescue nuclear shape.

normal human fibroblasts = test: Nuclear shape of normal fibroblasts, with or without FTI; assay type: cell-based
Source text: FIG. 11: Remodelin prevents FTI induced nuclear shape defects in non-progeric cells. A) Analysis of Lamin A/C processing after Remodelin or FTI treatment, showing that Remodelin is not a FTI. B) Representative pictures of Lamin A/C IF staining after the indicated treatments. Arrows indicate FTI induced misshapen nuclei in normal fibroblasts. Scale bar: 50 μm. C) Quantification of misshapen nuclei with the indicated cell lines and inhibitor treatments (means of three independent experiments±s.e.m. n>178). D) Representative pictures of DAPI staining showing effects of FTI and Remodelin on nuclear shape of U2OS cells. Scale bars: 20 μm.
U2OS and SaOS-2 osteosarcoma cells, HeLa cervical cancer cells, A431 melanoma cells, NCI-SNU5 gastric cancer cells, MRC-5 lung fibroblast cells and Werner syndrome patient-derived SV40 fibroblast cells were grown in Dulbecco's modified Eagle medium (DMEM, Sigma-Aldrich) supplemented with 10% fetal bovine serum (BioSera), 2 mM L-glutamine, 100 U per ml penicillin, 100 μg ml^−1 streptomycin. […] Cells were analysed 48 to 72 hours after transfection.
as §1, with “For HGPS cellular fitness assays, Remodelin was incubated at 1 μM for 1 to 10 days, renewing the medium every 3 days. For long-term senescence assay, cells were kept and passaged in medium containing 1 μM Remodelin or DMSO only for 12 population doublings.” left out

[6] = tested on: cells (sub-cellular distribution); test: Fluorescent labelling of clickable molecules (sub-cellular distribution); assay type: cell-based; details: 2 hours pre-incubation, Alexa fluor 488 Azide click
Experimental: Cells were pre-incubated with clickable molecules Compound 3 or Reference Compound A (1-Chloro-4-ethynilbenzene, purchased from Sigma-Aldrich) for 2 hours before being fixed and permeabilised as described above. Click reaction was prepared using Invitrogen Click-iT reagents with Alexa fluor 488 Azide and incubated with fixed cells for 1 hour in the dark. In case of co-labelling with another protein, the click reaction was performed before the antibody incubations.

HGPS AG11498 cells = test: Senescence-associated β-galactosidase in HGPS cells; assay type: cell-based, human; details: HGPS AG11498; Remodelin 1 μM, Pifithrin alpha 10 μM
Experimental: as §3

| Compound | misshapen nuclei / nuclear shape of HGPS cells [4] | nuclear shape / nuclear circularity rescue [5] | other results |
| --- | --- | --- | --- |
| C[C@@H]1C[C@@H]([C@H](O)CC2CC(=O)NC(=O)C2)C(=O)[C@@H](C)C1 [CHX, cycloheximide] |  |  | resistance of siLMNA versus siCT cells to protein synthesis inhibition [1]: siLMNA cells are more resistant to CHX |
| FC(F)(F)c1ccc(-c2csc(NN=C3CCCC3)n2)cc1 [Compound 13, 4-(4-Trifluoromethylphenyl)-2-(2-cyclopentylidenehydrazinyl)thiazole Hydrobromide Salt] |  |  | potency on LMNA KO cell growth inhibition compared to Compound 2 [2]: increased potency of Compound 13, compared to Compound 2 |
| COC(=O)[C@H](CCSC)NC(=O)c1ccc(NC[C@@H](N)CS)cc1-c1ccccc1 [FTI, reference compound] | improves the nuclear shape of HGPS cells | does not improve nuclear morphology in LMNA-depleted cells | pre-Lamin A processing [3]: caused accumulation of the pre-Lamin A intermediate; nuclear shape of normal cells (normal human fibroblasts): has the opposite effect on normal cells |
| C=C1C(=O)OC(CCC)C1C(=O)O (stereo not drawn) [MB-3] |  | did not improve nuclear circularity |  |
| C#Cc1ccc(Cl)cc1 [Reference Compound A, 1-Chloro-4-ethynilbenzene, reference compound] |  | inactive | sub-cellular distribution of fluorescently labelled molecule [6]: little or no cellular staining |
| COc1cc2c(c(OC)c1OC)-c1ccc(OC)c(=O)cc1[C@@H](NC(C)=O)CC2 [colchicine] | also rescued the nuclear shape defects | also rescued the nuclear shape defects of siLMNA cells |  |
| C/C1=C/C(=O)O[C@@H]2C[C@@H](CC[C@H](C)/C=C\C=C\CC1)O[C@@](O)([C@@H]1CSC(=O)N1)C2 [latrunculin A] |  | increased nuclear distortion |  |
| COC(=O)Nc1nc2ccc(C(=O)c3cccs3)cc2[nH]1 [nocodazole] | also rescued the nuclear shape defects | also rescued the nuclear shape defects of siLMNA cells |  |
| Pifithrin [reference compound] |  |  | senescence of HGPS cells (β-galactosidase positive cells) (HGPS AG11498 cells): none of these compounds decrease the senescence |
